Data taken from US5288720A, “Angiotensin II receptor blocking 2,3,6 substituted quinazolinones” (American Cyanamid Company, priority 1993, dated 1994).

Columns and labels:
Angiotensin II Receptor = target: T1, Angiotensin II Receptor (Bos taurus, UniProt P25104); test: Receptor Binding Assay: Binding of [^125 I](Sar^1,Ile^8)AngII to beef adrenal cortex membranes; settings: 60 min, room temperature
T1 construct: The brownish tissue forming the adrenal cortex is scraped off and finely minced with scissors before homogenization; from tissue; host or cells: beef adrenal cortex, microsomal membranes (100,000×g pellet); fresh glands from a local slaughter house (Maxwell-Cohen)
T1 sequence (P25104 1-359): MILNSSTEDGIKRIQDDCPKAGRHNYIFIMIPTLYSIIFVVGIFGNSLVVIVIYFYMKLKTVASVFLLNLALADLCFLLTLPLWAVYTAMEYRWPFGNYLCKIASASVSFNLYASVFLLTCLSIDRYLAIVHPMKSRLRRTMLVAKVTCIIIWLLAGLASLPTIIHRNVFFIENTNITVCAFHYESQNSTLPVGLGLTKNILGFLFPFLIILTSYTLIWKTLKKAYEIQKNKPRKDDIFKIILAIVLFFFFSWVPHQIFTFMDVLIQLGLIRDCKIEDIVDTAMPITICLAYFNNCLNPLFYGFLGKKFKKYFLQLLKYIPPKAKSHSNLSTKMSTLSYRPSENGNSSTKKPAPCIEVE
Text: Beef adrenals are obtained from a local slaughter house (Maxwell-Cohen). [^125 […]. 2200 Ci/mmole, is purchased from Dupont (NEN®, Boston, Mass.). All unlabeled AngII analogs, Dimethylsulfoxide (DMSO), nucleotides, bovine serum albumin (BSA) are purchased from Sigma Chemical Co., St. Louis, Mo. U.S.A. […] Approximately sixteen (16) to twenty (20) beef adrenal glands are processed as follows: fresh adrenal glands received on crushed ice are cleaned of fatty tissues and the tough membranes encapsulating the glands are removed and discarded. The brownish tissue forming the adrenal cortex is scraped off and finely minced with scissors before homogenization. Care is taken to avoid contamination with medullary tissue during dissection. The scraped cortices are suspended in twenty volumes of an ice-cold buffer medium consisting of 10 mM Tris.HCl (pH 7.4 at 22° C.) and containing 1.0 mM EDTA and 0.2M sucrose. Unless otherwise indicated, all subsequent operations are done at 4° C. […] The homogenate is centrifuged first at low speed (3,000×g) for 10 minutes. […] This P2 pellet is discarded and the liquid phase is carefully decanted off in clean centrifuge tubes and recentrifuged at high speed (100,000×g) for 60 minutes. The translucent final pellet is harvested and combined in a small volume (20-50.0 ml) of 50.0 mM Tris.HCl buffer, pH 7.2. A 100 ul aliquot is withdrawn and the protein content of the preparation is determined by the Lowry's method (Lowry, O. H., Rosebrough, […]. and Randall, R. J., Protein measurement with Folin phenol reagent. J. Biol. Chem., […], 265-275, 1951). The pelleted membrane is reconstituted in 50.0 mM Tris.HCl buffer containing 0.1 mM of phenylmethylsulfonyl fluoride (PMSF) to give approximately a protein concentration of 2.5 mg per ml of tissue suspension. […] Receptor Binding Assay: […] In competition studies, experimental compounds are diluted in dimethylsulfoxide (DMSO) and added in 20 ul to wells before the introduction of tissue membranes. […] Assays are performed in triplicate. The wells are left undisturbed for 60 minutes at room temperature. Following incubation, all wells are harvested at once with a Brandel® Harvester especially designed for a 96 well plate (Brandel® Biomedical Research & Development Labs. Inc., Gaithersburg, Md., U.S.A.). The filter discs are washed with 10×1.0 ml of cold 0.9% NaCl to remove unbound ligand. Presoaking the filter sheet in 0.1% polyethyleneimine in normal saline (PEI/Saline) greatly reduces the radioactivity retained by the filter blanks. This method is routinely used. The filters are removed from the filter grid and counted in a Parkard® Cobra Gamma Counter for 1 minutes. (Packard Instrument Co., Downers Grove, Ill, U.S.A.). The binding data are analyzed by the non-linear interactive "LUNDON-1" program (LUNDON SOFTWARE Inc., Cleveland, Ohio U.S.A.).

[1] = test system: ANGIOTENSIN II VASOPRESSOR RESPONSE; test: AII Challenge: blockade of angiotensin II vasopressor response in conscious SHR; format: in vivo, rat (Conscious Male Okamoto-Aoki SHR); settings: SHR n=2
Text: By administering a compound of this invention to a rat, and then challenging with angiotensin II, a blockage of the vasopressor response is realized.
Conscious Male Okamoto-Aoki SHR, 16-20 weeks old, weighing approximately 330 g are purchased from Charles River Labs (Wilmington, Mass.). Conscious rats are restrained in a supine position with elastic tape. The area at the base of the tail is locally anesthetized by subcutaneous infiltration with 2% procaine. The ventral caudal artery and vein are isolated, and a cannula made of polyethylene (PE) 10-20 tubing (fused together by heat) is passed into the lower abdominal aorta and vena cava, respectively. The cannula is secured, heparinized (1,000 I.U./ml), sealed and the wound is closed. The animals are placed in plastic restraining cages in an upright position. The cannula is attached to a Statham P23Db pressure transducer, and pulsatile blood pressure is recorded to 10-15 minutes with a Gould Brush recorder. (Chan et al., (Drug Development Res., 18:75-94, 1989).
Angiotensin II (human sequence, Sigma Chem. Co., St. Louis, MO) of 0.05 and 0.1 ug/kg i.v. is injected into all rats (predosing response). Then a test compound, vehicle or a known angiotensin II antagonist is administered i.v., i.p. or orally to each set of rats. The two doses of angiotensin II are given to each rat again at 30, 60, 90, 120, 180, 240 and 300 minutes post dosing the compound or vehicle. The vasopressor response of angiotensin II is measured for the increase in systolic blood pressure in mmHg. The percentage of antagonism or blockade of the vasopressor response of angiotensin II by a compound is calculated using the vasopressor response (increase in systolic blood pressure) of angiotensin II of each rat predosing the compound as 100%. A compound is considered active if at 30 mg/kg i.v. it antagonized at least 50% of the response.

[2] = 3 mg/kg i.v., AII 0.05 mcg/kg IV, 30 min post dose
[3] = 3 mg/kg i.v., AII 0.05 mcg/kg IV, 60 min post dose
[4] = 3 mg/kg i.v., AII 0.05 mcg/kg IV, 90 min post dose
[5] = 3 mg/kg i.v., AII 0.05 mcg/kg IV, 120 min post dose
[6] = 3 mg/kg i.v., AII 0.05 mcg/kg IV, 180 min post dose
[7] = 3 mg/kg i.v., AII 0.05 mcg/kg IV, 240 min post dose
[8] = 3 mg/kg i.v., AII 0.05 mcg/kg IV, 300 min post dose
[9] = 3 mg/kg i.v., AII 0.1 mcg/kg IV, 30 min post dose
[10] = 3 mg/kg i.v., AII 0.1 mcg/kg IV, 60 min post dose
[11] = 3 mg/kg i.v., AII 0.1 mcg/kg IV, 90 min post dose
[12] = 3 mg/kg i.v., AII 0.1 mcg/kg IV, 120 min post dose
[13] = 3 mg/kg i.v., AII 0.1 mcg/kg IV, 180 min post dose
[14] = 3 mg/kg i.v., AII 0.1 mcg/kg IV, 240 min post dose
[15] = 3 mg/kg i.v., AII 0.1 mcg/kg IV, 300 min post dose
[16] = 10 mg/kg i.v., AII 0.05 mcg/kg IV, 30 min post dose
[17] = 10 mg/kg i.v., AII 0.05 mcg/kg IV, 60 min post dose
[18] = 10 mg/kg i.v., AII 0.05 mcg/kg IV, 90 min post dose
[19] = 10 mg/kg i.v., AII 0.05 mcg/kg IV, 120 min post dose
[20] = 10 mg/kg i.v., AII 0.05 mcg/kg IV, 180 min post dose
[21] = 10 mg/kg i.v., AII 0.05 mcg/kg IV, 240 min post dose
[22] = 10 mg/kg i.v., AII 0.05 mcg/kg IV, 300 min post dose
[23] = 10 mg/kg i.v., AII 0.1 mcg/kg IV, 30 min post dose
[24] = 10 mg/kg i.v., AII 0.1 mcg/kg IV, 60 min post dose
[25] = 10 mg/kg i.v., AII 0.1 mcg/kg IV, 90 min post dose
[26] = 10 mg/kg i.v., AII 0.1 mcg/kg IV, 120 min post dose
[27] = 10 mg/kg i.v., AII 0.1 mcg/kg IV, 180 min post dose
[28] = 10 mg/kg i.v., AII 0.1 mcg/kg IV, 240 min post dose
[29] = 10 mg/kg i.v., AII 0.1 mcg/kg IV, 300 min post dose

CCCCc1nc2ccc(C(C)(O)C3CCN(C)C3=O)cc2c(=O)n1Cc1ccc(-c2ccccc2-c2nn[nH]n2)cc1 (single isomer, unassigned; isomer 1) [Example 47, 2-Butyl-6-1-hydroxy-1-(1-methyl-2-oxo-3-pyrrolidinyl)ethyl]-3-[[2'-[1H(tetrazol-5yl)-[1,1'-biphenyl]-4-yl]methyl-4(3H)-quinazolinone isomer 1]
IC50 (Angiotensin II Receptor): 40 nM | % Inhibition of AII vasopressor response [1, 2]: 75% | Average Change (systolic blood pressure response to AII) [1, 2]: 10 mmHg | % Inhibition of AII vasopressor response [1, 3]: 75% | Average Change (systolic blood pressure response to AII) [1, 3]: 10 mmHg | % Inhibition of AII vasopressor response [1, 4]: 63% | Average Change (systolic blood pressure response to AII) [1, 4]: 15 mmHg | % Inhibition of AII vasopressor response [1, 5]: 69% | Average Change (systolic blood pressure response to AII) [1, 5]: 12.5 mmHg | % Inhibition of AII vasopressor response [1, 6]: 75% | Average Change (systolic blood pressure response to AII) [1, 6]: 10 mmHg | % Inhibition of AII vasopressor response [1, 7]: 38% | Average Change (systolic blood pressure response to AII) [1, 7]: 25 mmHg | % Inhibition of AII vasopressor response [1, 8]: 29% | Average Change (systolic blood pressure response to AII) [1, 8]: 28.5 mmHg | % Inhibition of AII vasopressor response [1, 9]: 73% | Average Change (systolic blood pressure response to AII) [1, 9]: 11.5 mmHg | % Inhibition of AII vasopressor response [1, 10]: 65% | Average Change (systolic blood pressure response to AII) [1, 10]: 15 mmHg | % Inhibition of AII vasopressor response [1, 11]: 76% | Average Change (systolic blood pressure response to AII) [1, 11]: 10 mmHg | % Inhibition of AII vasopressor response [1, 12]: 82% | Average Change (systolic blood pressure response to AII) [1, 12]: 7.5 mmHg | % Inhibition of AII vasopressor response [1, 13]: 59% | Average Change (systolic blood pressure response to AII) [1, 13]: 17.5 mmHg | % Inhibition of AII vasopressor response [1, 14]: 29% | Average Change (systolic blood pressure response to AII) [1, 14]: 30 mmHg | % Inhibition of AII vasopressor response [1, 15]: 18% | Average Change (systolic blood pressure response to AII) [1, 15]: 35 mmHg

CCCCc1nc2ccc(C(C)(O)C3CCCN(C)C3=O)cc2c(=O)n1Cc1ccc(-c2ccccc2-c2nn[nH]n2)cc1 (single isomer, unassigned; isomer 1) [Example 52, 2-Butyl-6-[1-hydroxy(1-methyl-2-oxo-3-piperidinyl)ethyl]-3-[[2'-(1H-tetrazol-5-yl)-[1,1'-biphenyl]-4-yl]methyl]-4(3H)-quinazolinone, isomer 1]
IC50 (Angiotensin II Receptor): 62 nM | % Inhibition of AII vasopressor response [1, 16]: 71% | Average Change (systolic blood pressure response to AII) [1, 16]: 12.5 mmHg | % Inhibition of AII vasopressor response [1, 17]: 94% | Average Change (systolic blood pressure response to AII) [1, 17]: 2.5 mmHg | % Inhibition of AII vasopressor response [1, 18]: 76% | Average Change (systolic blood pressure response to AII) [1, 18]: 10 mmHg | % Inhibition of AII vasopressor response [1, 19]: 59% | Average Change (systolic blood pressure response to AII) [1, 19]: 17.5 mmHg | % Inhibition of AII vasopressor response [1, 20]: 47% | Average Change (systolic blood pressure response to AII) [1, 20]: 22.5 mmHg | % Inhibition of AII vasopressor response [1, 21]: 29% | Average Change (systolic blood pressure response to AII) [1, 21]: 30 mmHg | % Inhibition of AII vasopressor response [1, 22]: 47% | Average Change (systolic blood pressure response to AII) [1, 22]: 22.5 mmHg | % Inhibition of AII vasopressor response [1, 23]: 85% | Average Change (systolic blood pressure response to AII) [1, 23]: 7.5 mmHg | % Inhibition of AII vasopressor response [1, 24]: 90% | Average Change (systolic blood pressure response to AII) [1, 24]: 5 mmHg | % Inhibition of AII vasopressor response [1, 25]: 70% | Average Change (systolic blood pressure response to AII) [1, 25]: 15 mmHg | % Inhibition of AII vasopressor response [1, 26]: 80% | Average Change (systolic blood pressure response to AII) [1, 26]: 10 mmHg | % Inhibition of AII vasopressor response [1, 27]: 55% | Average Change (systolic blood pressure response to AII) [1, 27]: 22.5 mmHg | % Inhibition of AII vasopressor response [1, 28]: 45% | Average Change (systolic blood pressure response to AII) [1, 28]: 27.5 mmHg | % Inhibition of AII vasopressor response [1, 29]: 45% | Average Change (systolic blood pressure response to AII) [1, 29]: 27.5 mmHg
